EC50 data for one compound are collected here from US20240238281A1, “PIPERAZINE DERIVATIVES AND APPLICATION THEREOF” (priority 2021, published 2024).

In one assay the target is T1, MC1R (Homo sapiens, UniProt Q01726).
T1 construct: expressed in transfected cells
As to the kind of experiment: In vitro activity of MCR receptors, intracellular cAMP signal (HEK293T/MCR cell line), MC1R. The format is cell-based. As to conditions: cAMP, HEK293T/MCR cell line; read-out: MC1R EC50. As to the method: (§1) Test purpose: to evaluate the agonistic effect of the compound on MCRs by detecting intracellular cAMP signal changes.
(§2) Cells were resuspended with 1×PBS+500 μM IBMX. 10 μL of the cell suspension was added into a 384-well plate to be tested, and the cell concentration was adjusted to 1×10^4 cells per well for later use. A pre-prepared solution of the compound to be tested was added, and dimethyl sulfoxide of the same volume was added to blank control wells. The test plate was centrifuged at 300 rpm for 1 minute, incubated at 37° C. for 30 minutes, and added with 5 μL of cAMP-d2 and 5 μL of a CAMP-cry antibody detection reagent. The test plate was centrifuged at 300 rpm for 1 minute, and incubated at room temperature for 60 minutes.

The target in another assay is T2, MC3R (Homo sapiens, UniProt P41968).
T2 construct: expressed in transfected cells
T2 sequence (P41968 whole entry): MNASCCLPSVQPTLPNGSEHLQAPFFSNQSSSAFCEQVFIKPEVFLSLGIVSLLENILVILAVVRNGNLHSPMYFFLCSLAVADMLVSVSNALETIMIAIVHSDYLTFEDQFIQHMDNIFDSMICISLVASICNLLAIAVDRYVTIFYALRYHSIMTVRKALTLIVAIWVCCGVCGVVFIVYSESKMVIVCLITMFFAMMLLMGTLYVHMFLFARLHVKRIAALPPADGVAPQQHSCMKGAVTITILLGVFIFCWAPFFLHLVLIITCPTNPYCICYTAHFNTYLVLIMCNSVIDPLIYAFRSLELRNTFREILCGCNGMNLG
As to the kind of experiment: In vitro activity of MCR receptors, intracellular cAMP signal (HEK293T/MCR cell line), MC3R. The class given is cell-based. As to the method:
as §1, §2

The structures appear in SMILES notation. pEC50: −log10 of the molar value.

T1 sequence (Q01726 whole entry): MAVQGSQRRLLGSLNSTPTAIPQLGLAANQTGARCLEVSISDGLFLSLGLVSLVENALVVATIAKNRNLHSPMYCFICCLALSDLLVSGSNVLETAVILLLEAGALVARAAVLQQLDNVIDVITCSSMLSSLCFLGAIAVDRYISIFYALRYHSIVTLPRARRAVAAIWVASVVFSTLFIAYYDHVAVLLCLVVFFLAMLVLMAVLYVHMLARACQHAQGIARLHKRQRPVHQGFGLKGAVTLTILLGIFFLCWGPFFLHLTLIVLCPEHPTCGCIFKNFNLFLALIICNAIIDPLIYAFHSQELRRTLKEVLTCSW

The pEC50 is the EC50 on a negative log10 scale, so that one unit is a factor of ten. Take `C[C@@H]1CN(C(=O)[C@@H]2CN(C3CCOCC3)C[C@H]2c2ccc(F)cc2F)C[C@H](C)N1c1ccc(F)cc1` (single isomer, unassigned) [Compound 7]: the figures for the pEC50 at MC1R and on MC3R were 6.34 and 5.38, respectively.
